Experimental data taken from patent US20050187253A1, “Medicinal kit to quit tobacco consumption comprising central cannabinoid receptor antagonist” (Sanofi-Aventis, priority 2000, published 2005).

Tests used:
[1] = test system: rats which have learnt to self-administer nicotine intravenously; assay: self-administration of nicotine in rats (model predicting effects on nicotine dependence); type: in vivo; conditions: intravenous nicotine self-administration
Text: The effects of compound A were studied in rats on a model which predicts the effects on nicotine dependence: the self-administration of nicotine according to W.T. Corrigal and al. Psychopharmacology, 1989, 99, 473-478.

[2] = test system: individuals who smoked more than 15 cigarettes a day and who showed symptoms of nicotine dependence; assay: double-blind placebo-controlled study of withdrawal from tobacco in smokers; type: in vivo, human; conditions: 40 mg per day for 10 weeks, including 2 weeks before start of withdrawal; in particular during the last 4 weeks of treatment; confirmed by exhaled carbon monoxide and plasma cotinine
Procedure: The patients received 40 mg of compound A per day for 10 weeks, including 2 weeks before the start of the period of withdrawal from tobacco. […] The withdrawal from tobacco was confirmed by weekly measurement of the levels of carbon monoxide exhaled and of cotinine in the plasma.

Cc1c(C(=O)NN2CCCCC2)nn(-c2ccc(Cl)cc2Cl)c1-c1ccc(Cl)cc1 [compound A, N-piperidino-5-(4-chloro-phenyl)-1-(2,4-dichlorophenyl)-4-methylpyrazole-3-carboxamide]
number of nicotine injections ([1]; compound A at a dose of 0.3 mg/kg): reduces, in a statistically significant manner | number of nicotine injections ([1]; compound A at a dose of 1 mg/kg): reduces, in a statistically significant manner | level of withdrawal from tobacco versus placebo group [2]: greater level of withdrawal
